The target in one test is Cannabinoid receptor 2 (Mus musculus, UniProt P47936). Kind of test: Compound was tested for its binding affinity against mouse spleen Cannabinoid receptor 2 using [3H]CP-55940 as radioligand. The test is classed as tissue-based.
For a further test, the target named is Cannabinoid receptor 1 (Rattus norvegicus, UniProt P20272). As to the kind of experiment: Binding affinity against rat brain Cannabinoid receptor 1 using [3H]CP-55940.
Cannabinoid receptor 1, sequence (P20272 whole entry): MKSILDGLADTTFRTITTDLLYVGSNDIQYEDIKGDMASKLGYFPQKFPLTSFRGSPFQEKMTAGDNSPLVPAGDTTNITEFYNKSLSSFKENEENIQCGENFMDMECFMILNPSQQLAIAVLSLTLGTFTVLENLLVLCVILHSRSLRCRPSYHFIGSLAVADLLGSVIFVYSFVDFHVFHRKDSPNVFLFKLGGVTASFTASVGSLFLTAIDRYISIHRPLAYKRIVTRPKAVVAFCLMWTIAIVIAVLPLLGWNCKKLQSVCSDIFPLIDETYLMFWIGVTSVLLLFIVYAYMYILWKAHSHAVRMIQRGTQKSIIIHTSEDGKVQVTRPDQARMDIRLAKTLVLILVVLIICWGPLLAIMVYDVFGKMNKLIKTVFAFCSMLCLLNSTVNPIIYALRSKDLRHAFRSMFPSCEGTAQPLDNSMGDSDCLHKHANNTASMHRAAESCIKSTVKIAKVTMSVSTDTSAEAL

Cannabinoid receptor 2, sequence (P47936 whole entry): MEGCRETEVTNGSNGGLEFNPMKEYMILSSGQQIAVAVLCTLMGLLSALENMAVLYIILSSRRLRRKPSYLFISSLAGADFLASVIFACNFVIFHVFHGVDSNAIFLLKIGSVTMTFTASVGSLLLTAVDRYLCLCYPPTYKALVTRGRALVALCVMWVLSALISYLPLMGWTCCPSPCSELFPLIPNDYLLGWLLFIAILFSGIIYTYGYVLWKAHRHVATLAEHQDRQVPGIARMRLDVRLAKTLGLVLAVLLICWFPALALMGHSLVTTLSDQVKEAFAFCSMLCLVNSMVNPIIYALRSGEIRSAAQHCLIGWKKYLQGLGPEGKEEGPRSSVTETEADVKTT

`CCCCCCC1(c2cc(O)c3c(c2)OC(C)(C)[C@@H]2CC=C(C)C[C@@H]32)OCCO1`: the Ki (in general, the equilibrium dissociation constant of an inhibitor or competing ligand from its target) on Cannabinoid receptor 2 turned out to be 0.22 nM; at Cannabinoid receptor 1, 0.52 nM.
In the same order, the values of `CCCCCCC1(c2cc(O)c3c(c2)OC(C)(C)[C@@H]2CC=C(C)C[C@@H]32)SCCCS1` are 3.6 nM and 1.8 nM.
The like results for `CCCCCCC1(c2cc(O)c3c(c2)OC(C)(C)[C@@H]2CC=C(C)C[C@@H]32)CCCC1` were, in that order, 1.92 nM and 0.45 nM.
The like results for `CC1=CC[C@@H]2[C@@H](C1)c1c(O)cc(C3SCCS3)cc1OC2(C)C` were, in that order, 103 nM and 168 nM.
Take `CCCCCCC1(c2cc(O)c3c(c2)OC(C)(C)[C@@H]2CC=C(C)C[C@@H]32)Sc2ccccc2S1`: the figures for the Ki on Cannabinoid receptor 2 and on Cannabinoid receptor 1 were 257 nM and 56.9 nM, respectively.
In the same order, the values of `CCCCCCC1(c2cc(O)c3c(c2)OC(C)(C)[C@@H]2CC=C(C)C[C@@H]32)SC(C)C(C)S1` (stereo partly drawn) are 19.7 nM and 32.3 nM.
Take `CCCCCCCc1cc(O)c2c(c1)OC(C)(C)[C@@H]1CC=C(C)C[C@@H]21`: at Cannabinoid receptor 1, the affinity, expressed as Ki, was 22 nM.

For the origin of these results see ChEMBL document CHEMBL1145850, “Pharmacophoric requirements for the cannabinoid side chain. Probing the cannabinoid receptor subsite at C1'” (J Med Chem, 2003).
